Data on 13 compounds can be found in US12441768B2, “Compositions and methods for treating endometriosis” (EndoMet Biosciences, Inc., priority 2018, dated 2025).

The test deals with T1, β-catenin (Homo sapiens, UniProt P35222).
T1 sequence (P35222 1-781): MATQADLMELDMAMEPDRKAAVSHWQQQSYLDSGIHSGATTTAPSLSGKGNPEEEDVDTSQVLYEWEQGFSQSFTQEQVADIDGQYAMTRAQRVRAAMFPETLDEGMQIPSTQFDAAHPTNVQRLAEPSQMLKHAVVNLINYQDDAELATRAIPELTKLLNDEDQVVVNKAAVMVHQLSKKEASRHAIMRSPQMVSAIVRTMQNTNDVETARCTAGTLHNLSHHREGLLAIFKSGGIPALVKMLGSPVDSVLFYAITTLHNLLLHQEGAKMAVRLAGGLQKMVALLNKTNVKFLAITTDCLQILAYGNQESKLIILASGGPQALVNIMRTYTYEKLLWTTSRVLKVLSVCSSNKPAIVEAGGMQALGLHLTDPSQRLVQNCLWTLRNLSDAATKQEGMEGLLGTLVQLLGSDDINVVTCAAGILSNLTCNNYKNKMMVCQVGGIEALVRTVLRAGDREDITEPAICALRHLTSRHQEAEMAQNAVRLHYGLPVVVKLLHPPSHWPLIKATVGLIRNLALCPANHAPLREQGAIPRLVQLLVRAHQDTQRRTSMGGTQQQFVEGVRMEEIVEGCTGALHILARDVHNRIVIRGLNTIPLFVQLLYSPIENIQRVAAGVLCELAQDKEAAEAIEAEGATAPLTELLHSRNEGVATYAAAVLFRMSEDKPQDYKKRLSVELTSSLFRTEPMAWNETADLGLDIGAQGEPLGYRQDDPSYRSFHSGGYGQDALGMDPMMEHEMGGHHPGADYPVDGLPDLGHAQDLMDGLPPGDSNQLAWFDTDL
Description: KD50 measurement using competitive fluorescence polarization (FP) with labelled TCF4. In kind it is binding. The following applies: fluorescence polarization, β-catenin. A digest of the protocol:
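Labelled TCF4 (5 nM) mixed with 100 nM β-catenin at room temperature; inhibitor added as serial dilutions from 10 nM to 30 uM. Polarization read at excitation 470 nm/emission 520 nm; binding displacement lowers polarization. Three independent runs.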
For orientation: Polarisation of emitted light reports the rotation of a fluorescent probe.

Read-outs that look alike come from different tables or passages of the source. Where a SMILES comes first, the peptide text is derived from it.

As to `CC[C@H](C)[C@@H]1NC(=O)[C@H](CC(C)C)NC(=O)[C@H](Cc2ccccc2)NC(=O)[C@H](Cc2c[nH]c3ccccc23)NC(=O)[C@@H](N)CCCCNC(=O)CC[C@@H](C(=O)NCC(=O)O)NC(=O)[C@H](Cc2c[nH]c3ccccc23)NC(=O)[C@H](Cc2ccccc2)NC(=O)[C@H](CS)NC1=O` [compound 272] (HELM PEPTIDE1{K.W.F.L.I.C.F.W.E.G}$PEPTIDE1,PEPTIDE1,1:R3-9:R3$$$V2.0), the “β-Cat FP Hill slope” value is listed as 0.84. In addition, under “read-out: β-Cat FP KD”, the dissociation constant Kd (commonly the constant that tells how readily two partners part at equilibrium) lay in the range of 1 to 10 µM. Take `CC[C@H](C)[C@H](NC(=O)[C@H](CC(C)C)NC(=O)[C@H](Cc1ccccc1)NC(=O)[C@H](Cc1c[nH]c2ccccc12)NC(=O)[C@H](CCSC)NC(C)=O)C(=O)N[C@@H](C)C(=O)N[C@@H](Cc1ccccc1)C(=O)N[C@@H](Cc1c[nH]c2ccccc12)C(=O)NCC(=O)O` [compound 274] (Ac-MWFLIAFWG-OH): the “β-Cat FP Hill slope” value turned out to be 2.2. The dissociation constant (Kd) (read-out: β-Cat FP KD) is less than 0.4 µM. As for `CC[C@H](C)[C@@H]1NC(=O)[C@H](CC(C)C)NC(=O)[C@H](Cc2ccc(O)cc2)NC(=O)[C@H](Cc2c[nH]c3ccccc23)NC(=O)[C@H](CCSC)NC(=O)[C@H](CCCNC(=N)N)NC(=O)[C@H](CO)NC(=O)[C@@H](N)CCCNC(=O)[C@H](Cc2c[nH]c3ccccc23)NC(=O)[C@H](Cc2ccccc2)NC(=O)[C@H](CO)NC1=O` [compound 277] (HELM PEPTIDE1{[Orn].S.R.M.W.Y.L.I.S.F.W}$PEPTIDE1,PEPTIDE1,1:R3-11:R2$$$V2.0), the “β-Cat FP Hill slope” value amounted to 0.7. The Kd (read-out: β-Cat FP KD) is greater than 30 µM. Turning to `CC[C@H](C)[C@@H]1NC(=O)[C@H](CC(C)C)NC(=O)[C@H](Cc2ccccc2)NC(=O)[C@H](Cc2c[nH]c3ccccc23)NC(=O)[C@@H](N)CCCCNC(=O)CN(CC(=O)O)C(=O)[C@H](Cc2c[nH]c3ccccc23)NC(=O)[C@H](C)NC(=O)[C@H](CS)NC1=O` [compound 284], the “β-Cat FP Hill slope” value was found to be 0.7. As for `CC[C@H](C)[C@@H]1NC(=O)[C@@H](NC(=O)[C@H](CCC(N)=O)NC(=O)[C@H](C)N(C)C(=O)[C@@H](N)Cc2c[nH]c3ccccc23)CCCCNC(=O)CC[C@@H](C(=O)N[C@@H](Cc2c[nH]cn2)C(=O)N[C@H](C(=O)N[C@@H](CCC(N)=O)C(=O)N[C@@H](CCCNC(=N)N)C(=O)N[C@H](C(=O)N[C@@H](Cc2c[nH]c3ccccc23)C(=O)NCC(N)=O)C(C)C)C(C)C)NC(=O)[C@H](CC(=O)O)NC(=O)[C@H](CC2CCCCC2)NC1=O` [compound 406] (HELM PEPTIDE1{W.[meA].Q.K.I.[Cha].D.E.H.V.Q.R.V.W.G.[am]}$PEPTIDE1,PEPTIDE1,4:R3-8:R3$$$V2.0), where the note is “read-out: β-Cat FP KD”, the dissociation constant Kd was greater than 30 µM. Regarding `CC[C@H](C)[C@@H]1NC(=O)[C@@H](NC(=O)[C@H](CCC(N)=O)NC(=O)[C@H](C)N(C)C(=O)[C@H](Cc2c[nH]c3ccccc23)NC(C)=O)CCCCNC(=O)CC[C@@H](C(=O)N[C@@H](Cc2c[nH]cn2)C(=O)N[C@H](C(=O)N[C@@H](CCC(N)=O)C(=O)N[C@@H](CCCNC(=N)N)C(=O)N[C@H](C(=O)N[C@@H](Cc2c[nH]c3ccccc23)C(=O)NCC(N)=O)C(C)C)C(C)C)NC(=O)[C@H](CC(=O)O)NC(=O)[C@H](CC2CCCCC2)NC1=O` [compound 407] (HELM PEPTIDE1{[ac].W.[meA].Q.K.I.[Cha].D.E.H.V.Q.R.V.W.G.[am]}$PEPTIDE1,PEPTIDE1,5:R3-9:R3$$$V2.0), the Kd (read-out: β-Cat FP KD) is greater than 30 µM. Turning to `CC[C@H](C)[C@@H]1NC(=O)[C@@H](NC(=O)[C@H](CCC(N)=O)NC(=O)[C@H](C)N(C)C(=O)[C@H](Cc2c[nH]c3ccccc23)NC(=O)COc2ccccc2)CCCCNC(=O)CC[C@@H](C(=O)N[C@@H](Cc2c[nH]cn2)C(=O)N[C@H](C(=O)N[C@@H](CCC(N)=O)C(=O)N[C@@H](CCCNC(=N)N)C(=O)N[C@H](C(=O)N[C@@H](Cc2c[nH]c3ccccc23)C(=O)NCC(N)=O)C(C)C)C(C)C)NC(=O)[C@H](CC(=O)O)NC(=O)[C@H](CC2CCCCC2)NC1=O` [compound 408] (HELM PEPTIDE1{[O=C(COc1ccccc1)[*:2]].W.[meA].Q.K.I.[Cha].D.E.H.V.Q.R.V.W.G.[am]}$PEPTIDE1,PEPTIDE1,5:R3-9:R3$$$V2.0), where the note is “β-Cat FP KD”, the Kd is greater than 30 µM. Consider `CC[C@H](C)[C@H](NC(=O)[C@H](CO)NC(=O)[C@H](CCC(=O)O)NC(=O)[C@@H]1CCCN1C(=O)[C@H](CC(C)C)NC(=O)[C@H](CCCNC(=N)N)NC(=O)CCNC(C)=O)C(=O)N[C@@H](CC(C)C)C(=O)N[C@@H](CC(=O)O)C(=O)N[C@@H](CCC(=O)O)C(=O)N[C@@H](Cc1c[nH]cn1)C(=O)N[C@@H](Cc1c[nH]c2ccccc12)C(=O)N[C@@H](CCC(N)=O)C(=O)N[C@@H](CCCNC(=N)N)C(=O)N[C@H](C(=O)N[C@@H](Cc1c[nH]c2ccccc12)C(=O)N1CCC[C@H]1C(N)=O)C(C)C` [compound 411] (HELM PEPTIDE1{[ac].[bAla].R.L.P.E.S.I.L.D.E.H.W.Q.R.V.W.P.[am]}$$$$V2.0), for which the “β-Cat FP Hill slope” value was 0.7. For the same compound, under “read-out: β-Cat FP KD”, the equilibrium dissociation constant (Kd) lay within 1 to 10 µM. As to `CC[C@H](C)[C@@H]1NC(=O)[C@@H](NC(=O)[C@H](CCC(N)=O)NC(=O)[C@H](C)N(C)C(=O)[C@H](Cc2c[nH]c3ccccc23)NC(C)=O)CCCCNC(=O)CC[C@@H](C(=O)N[C@@H](Cc2c[nH]cn2)C(=O)N[C@H](C(=O)NC(C)(C)C(=O)N[C@@H](CCCNC(=N)N)C(=O)N[C@H](C(=O)N[C@@H](Cc2c[nH]c3ccccc23)C(=O)NCC(N)=O)C(C)C)C2CCCCC2)NC(=O)[C@H](CC(=O)O)NC(=O)[C@H](CC(C)C)NC1=O` [compound 414] (HELM PEPTIDE1{[ac].W.[meA].Q.K.I.L.D.E.H.[O=C([C@@H](N[*:1])C1CCCCC1)[*:2]].[Aib].R.V.W.G.[am]}$PEPTIDE1,PEPTIDE1,5:R3-9:R3$$$V2.0), the “β-Cat FP Hill slope” value was determined as 0.7. For the same compound, where the note is “read-out: β-Cat FP KD”, the Kd was less than 0.4 µM. For the compound `CC[C@H](C)[C@@H]1NC(=O)[C@@H](NC(=O)[C@H](CCC(N)=O)NC(=O)[C@H](C)N(C)C(=O)[C@@H](N)Cc2c[nH]c3ccccc23)CCCCNC(=O)CC[C@@H](C(=O)N[C@@H](Cc2c[nH]cn2)C(=O)N[C@H](C(=O)N[C@@H](CO)C(=O)N[C@@H](CCCNC(=N)N)C(=O)N[C@H](C(=O)N[C@@H](Cc2c[nH]c3ccccc23)C(=O)NCC(N)=O)C(C)C)C2CCCCC2)NC(=O)[C@H](CC(=O)O)NC(=O)[C@H](CC(C)C)NC1=O` [compound 415] (HELM PEPTIDE1{W.[meA].Q.K.I.L.D.E.H.[O=C([C@@H](N[*:1])C1CCCCC1)[*:2]].S.R.V.W.G.[am]}$PEPTIDE1,PEPTIDE1,4:R3-8:R3$$$V2.0), the “β-Cat FP Hill slope” value turned out to be 0.7. For the setting “read-out: β-Cat FP KD”, the dissociation constant (Kd) was less than 0.4 µM. As for `CC[C@H](C)[C@@H]1NC(=O)[C@@H](NC(=O)[C@H](CCC(N)=O)NC(=O)[C@H](C)N(C)C(=O)[C@H](Cc2c[nH]c3ccccc23)NC(C)=O)CCCCNC(=O)CC[C@@H](C(=O)N[C@@H](Cc2c[nH]cn2)C(=O)N[C@H](C(=O)N[C@@H](CO)C(=O)N[C@@H](CCCNC(=N)N)C(=O)N[C@H](C(=O)N[C@@H](Cc2c[nH]c3ccccc23)C(=O)NCC(N)=O)C(C)C)C2CCCCC2)NC(=O)[C@H](CC(=O)O)NC(=O)[C@H](CC(C)C)NC1=O` [compound 416] (HELM PEPTIDE1{[ac].W.[meA].Q.K.I.L.D.E.H.[O=C([C@@H](N[*:1])C1CCCCC1)[*:2]].S.R.V.W.G.[am]}$PEPTIDE1,PEPTIDE1,5:R3-9:R3$$$V2.0), the “β-Cat FP Hill slope” value stood at 0.7. In addition, the dissociation constant (Kd) (read-out: β-Cat FP KD) was less than 0.4 µM. `CC[C@H](C)[C@@H]1NC(=O)[C@@H](NC(=O)C(C)(C)NC(=O)[C@H](C)N(C)C(=O)[C@@H](N)Cc2c[nH]c3ccccc23)CCCCNC(=O)CC[C@@H](C(=O)N[C@@H](Cc2c[nH]cn2)C(=O)N[C@H](C(=O)N[C@@H](CCC(N)=O)C(=O)N[C@@H](CCCNC(=N)N)C(=O)N[C@H](C(=O)N[C@@H](Cc2c[nH]c3ccccc23)C(=O)NCC(N)=O)C(C)C)C2CCCCC2)NC(=O)[C@H](CC(=O)O)NC(=O)[C@H](CC(C)C)NC1=O` [compound 417] (HELM PEPTIDE1{W.[meA].[Aib].K.I.L.D.E.H.[O=C([C@@H](N[*:1])C1CCCCC1)[*:2]].Q.R.V.W.G.[am]}$PEPTIDE1,PEPTIDE1,4:R3-8:R3$$$V2.0): the “β-Cat FP Hill slope” value amounted to 0.93. Moreover, for the setting “read-out: β-Cat FP KD”, the Kd was less than 0.4 µM. With `CC[C@H](C)[C@@H]1NC(=O)[C@@H](NC(=O)C(C)(C)NC(=O)[C@H](C)N(C)C(=O)[C@H](Cc2c[nH]c3ccccc23)NC(C)=O)CCCCNC(=O)CC[C@@H](C(=O)N[C@@H](Cc2c[nH]cn2)C(=O)N[C@H](C(=O)N[C@@H](CCC(N)=O)C(=O)N[C@@H](CCCNC(=N)N)C(=O)N[C@H](C(=O)N[C@@H](Cc2c[nH]c3ccccc23)C(=O)NCC(N)=O)C(C)C)C2CCCCC2)NC(=O)[C@H](CC(=O)O)NC(=O)[C@H](CC(C)C)NC1=O` [compound 418] (HELM PEPTIDE1{[ac].W.[meA].[Aib].K.I.L.D.E.H.[O=C([C@@H](N[*:1])C1CCCCC1)[*:2]].Q.R.V.W.G.[am]}$PEPTIDE1,PEPTIDE1,5:R3-9:R3$$$V2.0), the “β-Cat FP Hill slope” value came to 1.03. Also, the Kd (read-out: β-Cat FP KD) was greater than 30 µM.
